Here are results for 15 molecules from patent US20240150342A1, “ESTROGEN-RELATED RECEPTOR ALPHA MODULATORS” (LEAD PHARMA HOLDING B.V., priority 2019, published 2024).

Assay [1] deals with T1, ERRα ligand binding domain (ERRα-LBD) (Homo sapiens, UniProt P11474).
T1 construct: made in house; host or cells: E. coli
T1 sequence (P11474 193-421 limits assumed): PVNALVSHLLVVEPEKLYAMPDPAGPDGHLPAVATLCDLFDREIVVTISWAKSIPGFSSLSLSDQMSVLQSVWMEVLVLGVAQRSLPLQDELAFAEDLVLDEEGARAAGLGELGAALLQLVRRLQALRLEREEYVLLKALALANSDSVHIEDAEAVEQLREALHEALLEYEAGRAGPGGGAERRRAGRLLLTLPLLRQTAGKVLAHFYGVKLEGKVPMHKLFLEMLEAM
Description: ERRα AlphaScreen Assay. It is filed as biochemical. Conditions: disruption of binding of ERRα-LBD protein to biotin-PGC1α-3 co-activator peptide; read-out: mean pIC50 (converted). From the text:
This assay was based on the knowledge that nuclear receptors interact with cofactors in a ligand dependent matter. The sites of interaction have been mapped to LXXLL motifs that are present in the co-activator sequences. Short peptide sequences that contain the LXXLL motif mimic the behavior of full length co-activators.
The ERRα AlphaScreen Assay described here relies on the interaction of the co-activator peptide with purified bacterial- expressed ERRα ligand binding domain (ERRα-LBD); upon ligand binding, the ERRα protein can undergo a conformational change resulting in a loss of co-activator binding.
Compounds of the present invention were tested for their ability to disrupt binding of ERRα-LBD protein to co-activator peptide using AlphaScreen® Technology (Perkin Elmer). ERRα-LBD protein was expressed in E. coli as a 6×His Small Ubiquitin-like Modifier (SUMO) fusion. Bacterial expressed 6His-SUMO-ERRα-LBD protein was purified using affinity chromatography. All experiments were performed at room temperature in 384-well white non-binding plates (Greiner) using 50 mM Tris-HCl pH 7.5, 100 mM NaCl, 0.1% Pluronic F-127, 0.05% BSA and 5 mM TCEP as the buffer. Final DMSO concentration was 1% in the assay. Compounds were assayed in triplicate and: incubated with 0.81 nM ERRα-LBD protein and 10 μg/mL streptavidin donor beads and 10 μg/mL Ni-chelate acceptor beads for 1 hour at room temperature; followed by a 2-hour incubation with 15 nM biotin-PGC1α-3 peptide (QRRPCSELLKYLTTNDDPP) corresponding to amino acids 202 to 220.
The AlphaScreen signal was measured using an Envision Xcite plate reader (Perkin Elmer). Data was normalized, and curve fitting analysis was performed in GraphPad Prism 7 using a four-parameter dose-response fit.
For orientation: Alpha assays give light when donor and acceptor beads are brought close together.

In another assay the target is T2, full length ERRα (Homo sapiens, UniProt P11474).
T2 construct: an over-expression construct coding full length ERRα; expressed in transfected cells; host or cells: SK-BR-3 cells, transient co-transfection of pLP2124 (pcDNA3.1/Hygro(+) background) and reporter pLP2175
T2 sequence (P11474 1-423): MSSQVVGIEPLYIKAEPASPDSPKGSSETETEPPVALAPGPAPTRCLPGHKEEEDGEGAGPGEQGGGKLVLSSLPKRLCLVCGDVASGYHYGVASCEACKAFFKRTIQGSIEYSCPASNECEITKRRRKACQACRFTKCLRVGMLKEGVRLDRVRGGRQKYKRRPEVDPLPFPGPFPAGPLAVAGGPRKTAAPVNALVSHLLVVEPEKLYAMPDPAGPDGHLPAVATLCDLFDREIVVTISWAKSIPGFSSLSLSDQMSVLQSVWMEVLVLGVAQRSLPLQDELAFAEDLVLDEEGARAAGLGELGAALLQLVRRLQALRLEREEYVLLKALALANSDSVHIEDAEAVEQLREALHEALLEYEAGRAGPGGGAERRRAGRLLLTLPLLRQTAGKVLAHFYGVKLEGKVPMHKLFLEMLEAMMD
The assay is described as follows: Full Length ERRα Reporter Gene Assay. It is filed as cell-based. To be noted: SK-BR-3 cells, ERRα-RE luciferase reporter, overnight incubation; read-out: mean pIC50 (converted). From the text: A method was established to quantitatively screen the potency of compounds with inverse agonistic activity on the nuclear receptor ERRα of the human species. The assay allows intra-cellular screening of ERRα inverse agonists in SK-BR-3 cells using an over-expression construct coding full length ERRα and a reporter construct containing an ERRα Response Element (RE) and a luciferase gene for read out. The activity is expressed in logIC50 values and can be used to determine SAR of compound families or to de-select compounds.
In this assay, reporter cells are obtained by transient co-transfection of two constructs in SK-BR-3 cells using standard transfection techniques. The first construct contains a response element of the nuclear receptor ERRα (Plasmid pLP2175, Reporter construct ERRα-RE/luc2P, cloned variant of ERRα_v2_synthRE, Switchgear Genomics, Catalog Number S900089). This sequence drives the transcription of the luciferase reporter gene in response to binding of an ERRα protein encoded by the second construct (Plasmid pLP2124: full length ERRα expression construct using pcDNA3.1/Hygro(+) as background, Invitrogen Catalog Number V87020).
The day after transfection, cells were plated into 96 well plates, the test compound was added and the plates were incubated overnight. Subsequently, the firefly luciferase activity was quantified using luciferase detection reagent and luminescence readout.
Transfection is performed on pre-seeded SK-BR-3 cells in a T175 flask. One transfected T175 flask is sufficient for seeding 3 to 4 MW96 plates the next day, depending on the confluency of the transfected cells.
Two different media are used in this protocol for cell treatment: 1) Culture medium, i.e. McCoy's 5a with phenol red (BioWhittaker Supplier Number 12-688F), 10% FBS and 1× Penstrep.; and, 2) Assay medium, i.e. McCoy's 5a Medium phenol red free (HyClone Product Code SH30270.01) with 2% Charcoal Stripped FBS and 1× Penstrep. Compound dilutions are prepared in assay medium.
Cells are seeded at least 2 days in advance to allow the cells to adhere well to flask before transfection. Cells should be 50-80% confluent at the day of transfection.
SKBR3 cells were transfected with the transcriptional reporter construct pLP2175 and the ERRα expression construct pLP2124 (as described above).
68 μL of Lipofectamine LTX transfection reagent (Invitrogen Catalog Number 15338-100) was added dropwise to 8.9 ml Opti-MEM I Reduced Serum Medium (Gibco Catalog Number 51985-026) and incubated at room temperature for 5 to 20 minutes. 8.9 ml of this reagent mixture was added to 22 μg pLP2175+22 μg pLP2124 (ratio 1:1 and total volume 10 ml), and incubated at room temperature for 25 minutes.
10 minutes before adding the transfection mix to SKBR3 cells in a T175 flask, the culture medium was refreshed with 20 mL culture medium. Subsequently, the 10 mL DNA-Opti-MEM-Lipofectamine mixture was gently added to the cells, followed by overnight (16-24 hours) incubation at 37° C. and 5% CO2.
To harvest SKBR3 cells from a T175 flask, first the medium was removed. Subsequently, cells were washed with Phosphate Buffered Saline (PBS) (Lonza), after which the PBS was removed. To dissociate the cells, 2 ml of TrypLE Express (I nvitrogen) was added to the flask, followed by incubation at 37° C. for 5 minutes. The flask was tapped until cells were detached from the bottom. Cells were collected in 8 mL of culture medium (McCoy's 5a, 10% FBS, penstrep), to achieve a single cell suspension. After cell count, cells were spun down for 5 minutes at 300 g. Next cell pellets were re-suspended to 25000 cells/80 μl assay medium (McCoy's 5a phenol red free, 2% charcoal stripped FBS, penstrep).
For compound screening, the cells were harvested (as described above). 80 μL of cell suspension (25,000 cells) was plated per well into a white, flat bottom, tissue culture treated, 96 well screening plates (Greiner). […]
On the technique in general: Reporter assays use an easily measured gene product as a stand-in for the process of interest.

A value given as a limit tells only on which side of the number the result lay.

On to `COc1cc(C2CC(=O)Nc3n[nH]cc32)ccc1Oc1cc(C(F)(F)F)cc(C(F)(F)F)c1` (racemic) [Example 43, 4-{4-[3,5-bis(trifluoromethyl)phenoxy]-3-methoxyphenyl}-2H,4H,5H,6H,7H-pyrazolo[3,4-b]pyridin-6-one], for which the values for the IC50 (in assay [1]; on full length ERRα) were 10 to 100 nM and no more than 316 nM, respectively.
With `COc1cc(C2CC(=O)Nc3n[nH]cc32)ccc1Oc1cc(C)cc(C(F)(F)F)c1` (single isomer, unassigned; (-)) [Example 84, (−)-4-{3-methoxy-4-[3-methyl-5-(trifluoromethyl)phenoxy]phenyl}-2H,4H,5H,6H,7H-pyrazolo[3,4-b]pyridin-6-one], the IC50 in assay [1] is no more than 10 nM; at full length ERRα, no more than 316 nM.
For `COc1cc(C2CC(=O)Nc3n[nH]cc32)ccc1Oc1cc(C(F)F)cc(C(F)(F)F)c1` (single isomer, unassigned; (-)) [Example 86, (−)-4-{4-[3-(difluoromethyl)-5-(trifluoromethyl)phenoxy]-3-methoxyphenyl}-2H, 4H,5H,6H,7H-pyrazolo[3,4-b]pyridin-6-one], the values for the IC50 (in assay [1]; on full length ERRα) were no more than 10 nM and no more than 316 nM, respectively.
The like results for `COc1cc(C2CC(=O)Nc3n[nH]cc32)ccc1Oc1ccccc1C(C)(C)C` (stereo not drawn) [Example 10, 4-[4-(2-tert-butylphenoxy)-3-methoxyphenyl]-2H,4H,5H,6H,7H-pyrazolo[3,4-b]pyridin-6-one] were, in that order, 10 to 100 nM and no more than 316 nM.
With `COc1cc(C2CC(=O)Nc3n[nH]cc32)ccc1Oc1ccc(O)c(C(C)(C)C)c1` (stereo not drawn) [Example 29, 4-[4-(3-tert-butyl-4-hydroxyphenoxy)-3-methoxyphenyl]-2H,4H,5H,6H,7H-pyrazolo[3,4-b]pyridin-6-one], the results for the IC50 (in assay [1]; at full length ERRα) were no more than 10 nM and no more than 316 nM, respectively.
With `CCc1ccc(Oc2ccc(C3CC(=O)Nc4n[nH]cc43)cc2OC)c(C(C)(C)C)c1` (stereo not drawn) [Example 32, 4-[4-(2-tert-butyl-4-ethylphenoxy)-3-methoxyphenyl]-2H,4H,5H,6H,7H-pyrazolo[3,4-b]pyridin-6-one], the IC50 in assay [1] was no more than 10 nM; on full length ERRα, no more than 316 nM.
The like results for `COc1cc(C2CC(=O)Nc3n[nH]cc32)ccc1Oc1ccc(Br)cc1C(C)(C)C` (stereo not drawn) [Example 33, 4-[4-(4-bromo-2-tert-butylphenoxy)-3-methoxyphenyl]-2H,4H,5H,6H,7H-pyrazolo[3,4-b]pyridin-6-one] were, in that order, no more than 10 nM and no more than 316 nM.
As to `COc1cc(C2CC(=O)Nc3n[nH]cc32)ccc1Oc1ccc(C)cc1C(C)(C)C` (stereo not drawn) [Example 34, 4-[4-(2-tert-butyl-4-methylphenoxy)-3-methoxyphenyl]-2H,4H,5H,6H,7H-pyrazolo[3,4-b]pyridin-6-one], the results for the IC50 (in assay [1]; on full length ERRα) were no more than 10 nM and no more than 316 nM, respectively.
`COC(=O)c1ccc(Oc2ccc(C3CC(=O)Nc4n[nH]cc43)cc2OC)c(C(C)(C)C)c1` (stereo not drawn) [Example 35, methyl 3-tert-butyl-4-(2-methoxy-4-{6-oxo-2H,4H,5H,6H,7H-pyrazolo[3,4-b]pyridin-4-yl}phenoxy)benzoate]: the figures for the IC50 (in assay [1]; on full length ERRα) were no more than 10 nM and no more than 316 nM, respectively.
Regarding `COc1cc(C2CC(=O)Nc3n[nH]cc32)ccc1Oc1ccc(C(C)(C)C)cc1C(C)(C)C` (stereo not drawn) [Example 37, 4-[4-(2,4-di-tert-butylphenoxy)-3-methoxyphenyl]-2H,4H,5H,6H,7H-pyrazolo[3,4-b]pyridin-6-one], the IC50 in assay [1] was no more than 10 nM; at full length ERRα, no more than 316 nM.
In the case of `COc1cc(Oc2ccc(C3CC(=O)Nc4n[nH]cc43)cc2OC)cc(C(F)(F)F)c1` (stereo not drawn) [Example 38, 4-{3-methoxy-4-[3-methoxy-5-(trifluoromethyl)phenoxy]phenyl}-2H,4H,5H,6H,7H-pyrazolo[3,4-b]pyridin-6-one], the values for the IC50 (in assay [1]; at full length ERRα) were no more than 10 nM and no more than 316 nM, respectively.
In the case of `COc1cc(C2CC(=O)Nc3n[nH]cc32)ccc1Oc1ccc(C#N)cc1C(C)(C)C` (stereo not drawn) [Example 39, 3-tert-butyl-4-(2-methoxy-4-{6-oxo-2H,4H,5H,6H,7H-pyrazolo[3,4-b]pyridin-4-yl}phenoxy)benzonitrile], the IC50 is no more than 10 nM in assay [1] and no more than 316 nM on full length ERRα.
Take `COc1cc(C2CC(=O)Nc3n[nH]cc32)ccc1Oc1ccccc1S(F)(F)(F)(F)F` (stereo not drawn) [Example 40, 4-{3-methoxy-4-[2-(pentafluoro-λ^6-sulfanyl)phenoxy]phenyl}-2H,4H,5H,6H,7H-pyrazolo[3,4-b]pyridin-6-one]: the IC50 in assay [1] is 10 to 100 nM; on full length ERRα, no more than 316 nM.
The like results for `COC(=O)c1cc(Oc2ccc(C3CC(=O)Nc4n[nH]cc43)cc2OC)cc(C(F)(F)F)c1` (stereo not drawn) [Example 41, methyl 3-(2-methoxy-4-{6-oxo-2H,4H,5H,6H,7H-pyrazolo[3,4-b]pyridin-4-yl}phenoxy)-5-(trifluoromethyl)benzoate] were, in that order, 10 to 100 nM and no more than 316 nM.
The like results for `COc1cc(C2CC(=O)Nc3n[nH]cc32)ccc1Oc1cc(C)cc(C(F)(F)F)c1` (stereo not drawn) [Example 63, 4-{3-methoxy-4-[3-methyl-5-(trifluoromethyl)phenoxy]phenyl}-2H,4H,5H,6H,7H-pyrazolo[3,4-b]pyridin-6-one] were, in that order, no more than 10 nM and no more than 316 nM.
